Series [1] deals with breast cancer cell line MDA-MB468. The series is described as follows: MTT assay, human breast cancer cells. It counts as cell-based. To be noted: concentrations in the range of 10^−7-10^−5 M or higher, FIGS. 2, 17. From the text:
(§1) The anti-cancer activity of some of the compounds described herein have been tested in one type of such in vitro assay, as described in the examples herein, using a microculture assay with 3-(4,5-dimethylthiazol-2-yl)-2,5-diphenyltetrazolium bromide (“MTT”). This assay has an advantage over in vivo assay in that results are obtained within a week as opposed to several months. The assay can be carried out in 96-well microtiter plates. The MTT assay is based on the production of a dark blue formazan product by dehydrogenase in the mitochondria of live tumor cells after exposure to drug for 6 days [M. C. Alley, D. A. Scudiero, A. Monks, M. L. Hursey, M. J. Czerwinski, D. L. Fine, B. J. Abbout, J. G. Mayo, R. H. Shoemaker and M. R. Boyd, Cancer Res., 48, 589, 1988]. Thus, only live cells are stained and can be measured at 595 nm. Anti-cancer activity can be reported as percent of the tumor cell growth in the presence of compound at a defined dose compared to control/vehicle treated tumor cells. The results of some such screening assays are given in Examples 162a and 162b, and in FIGS. 2, 3, and 15-18.
(§2) The following human cancer cell lines were used to detect anti-cancer activity in the compounds of the invention.
The breast cancer cell line MDA-MB468 served to detect anti-breast cancer activity.
(§3) Cell lines were purchased from American Type Culture Collection (ATCC).
(§4) The cancer cell cultures were grown as recommended by the ATTC manuals. A549 cells and BX-PC-3 were grown in DME Dulbecco's modified Eagle's medium containing 4500 mg/L glucose; 4 mM L-glutamine; 10 U/ml Pen-G; 10 mcg/ml […] and 10% fetal calf serum (FCS). PC-3 and MDA-MB468 cells were grown in RPMI medium 1640 containing 2 mM L-glutamine; 10 U/ml Pen-G; 10 mcg/ml Streptomycin and 10% FCS. Cells were kept at 6% CO2 and 37° C. Cells were seeded on day zero in 96-well format tissue culture plates at suitable densities the day before starting treatment, in the media indicated above.
(§5) On day one, the compounds of the invention were added to the culture media of growing cells, containing 10% FCS. The cell media contained the compounds of the invention at one of six concentrations: […], 5×10^−8, 1×10^−7, 5×10^−7, 1×10^−6, and 1×10^−5M. 0.1% DMSO was used as vehicle control, and never exceeded 0.1% final concentration. On day four the media was removed and replaced with fresh media containing the compounds of the invention and FCS.
(§6) The assay is based on the cleavage of the yellow tetrazolium salt MTT to purple formazan crystals by dehydrogenase activity in active mitochondria. This conversion only occurs in living cells with intact/functional mitochondria.
(§7) On day five 10 μl of 5 mg/ml MTT dye are added to each well containing a cell culture. Cells are incubated for additional 4 hours at 6% CO2 and 37° C. Reaction is then stopped by adding 100 μl/well of a solubilization solution consisting of 10% Sodium Dodecyl Sulfate (SDS) and 10 mM HCl On day 6 the formazan crystals formed are solubilized and the resulting colored solution is quantified using a scanning multiwell spectrophotometer at a wavelength of 595 nm.
In general terms: Formazan colour is commonly taken as a measure of viable cells.

Series [2] relates to prostate cancer cell line PC-3. In words: MTT assay, human prostate cancer cells. It counts as cell-based. The note with it: concentrations in the range of 10^−7-10^−5 M or higher, FIGS. 2, 16.
Text: as §1, §2
The prostate cancer cell line PC-3 was used to detect […]
as §3, §4, §5, §6, §7

In series [3] the test system is non-small-cell lung cancer cell line A549. The series is described as follows: MTT assay, human non-small-cell lung cancer cells. It counts as cell-based. The note with it: concentrations in the range of 10^−7-10^−5 M or higher, FIGS. 3, 15.
Text: as §1, §2
The non-small-cell lung cancer cell line A549 was used to detect anti-lung cancer activity
as §3, §4, §5, §6, §7

The subject of series [4] is pancreatic cancer cell line BX-PC-3. The series is described as follows: MTT assay, human pancreatic cancer cells. It counts as cell-based. The note with it: concentrations in the range of 10^−7-10^−5 M or higher, FIGS. 3, 18.
Text: as §1, §2
The pancreatic cancer cell line BX-PC-3 was used to detect anti-pancreatic cancer activity.
as §3, §4, §5, §6, §7

Entries after “also recorded” stand apart in the source; their conditions may differ.

What is called melting point is the temperature of the solid-liquid transition. On to `O=C1N=C(N2CCOCC2)S/C1=C\c1cccc(-c2cc(F)c(O)c(C34CC5CC(CC(C5)C3)C4)c2)c1` [Compound 1, 5-[3-(3-Adamantan-1-yl-4-hydroxy-5-fluoro-phenyl)benzylidene]-2-morpholin-4-yl-thiazol-4-one], for which the melting point was in the range of 293 to 295 °C. Further, the “anticancer cell activity / killing of breast cancer cells” value in series [1] is reported as “kill significant percentages of the cells; also recorded: strong anticancer cell activity”. Besides, the “anticancer cell activity / killing of prostate cancer cells” value in series [2] was “kill significant percentages of the cells; also recorded: strong anticancer cell activity”. For the same compound, in series [3], the “anticancer cell activity / killing of non-small-cell lung cancer cells” value was “kill significant percentages of the cells; also recorded: strong anticancer all activity”. For the same compound, in series [4], the “anticancer cell activity / killing of pancreatic cancer cells” value is recorded as “kill significant percentages of the cells; also recorded: strong anticancer all activity”.

`COc1cc(-c2ccc(O)c(C34CC5CC(CC(C5)C3)C4)c2)cc(/C=C2\SC(N3CCOCC3)=NC2=O)c1O` [Compound 84, 5-[3-(3-Adamantan-1-yl-4-hydroxy-phenyl)-5-methoxy-6-hydroxy-benzylidene]-2-morpholin-4-yl-thiazol-4-one] came in with a melting point of 310 to 312 °C. In addition, the “anticancer cell activity / killing of breast cancer cells” value in series [1] is given as “kill significant percentages of the cells”. The “anticancer cell activity / killing of prostate cancer cells” value in series [2] is listed as “kill significant percentages of the cells”. For the same compound, the “anticancer cell activity / killing of non-small-cell lung cancer cells” value in series [3] is recorded as “kill significant percentages of the cells”. Besides, the “anticancer cell activity / killing of pancreatic cancer cells” value in series [4] is listed as “kill significant percentages of the cells”.

Turning to `O=C1N=C(N2CCOCC2)SC1Cc1cccc(-c2ccc(O)c(C34CC5CC(CC(C5)C3)C4)c2)c1` (stereo not shown) [Compound 135, 5-(3′-Adamantan-1-yl-4′-hydroxy-biphenyl-3-ylmethyl)-2-morpholin-4-yl-thiazol-4-one], the “anticancer cell activity / killing of breast cancer cells” value in series [1] was “kill significant percentages of the cells”. Besides, in series [2], the “anticancer cell activity / killing of prostate cancer cells” value is “kill significant percentages of the cells”. Further, the “anticancer cell activity / killing of non-small-cell lung cancer cells” value in series [3] is “kill significant percentages of the cells”. The “anticancer cell activity / killing of pancreatic cancer cells” value in series [4] is “kill significant percentages of the cells”.

`CCC(C)(C)c1cc(-c2ccc(F)c(/C=C3\SC(N4CCOCC4)=NC3=O)c2)ccc1O` [Compound 152, 5-[3′-(1,1-Dimethyl-propyl)-4-fluoro-4′-hydroxy-biphenyl-3-ylmethylene]-2-morpholin-4-yl-thiazol-4one]: the “anticancer cell activity / killing of breast cancer cells” value in series [1] is listed as “kill significant percentages of the cells”. Besides, the “anticancer cell activity / killing of prostate cancer cells” value in series [2] was “kill significant percentages of the cells”. For the same compound, the “anticancer cell activity / killing of non-small-cell lung cancer cells” value in series [3] is on record as “kill significant percentages of the cells”. The “anticancer cell activity / killing of pancreatic cancer cells” value in series [4] was “kill significant percentages of the cells”.

On to `CCC(C)(C)c1cc(-c2cccc(CC3SC(N4CCOCC4)=NC3=O)n2)ccc1O` (stereo not shown) [Compound 155, 5-{6-[3-(1,1-Dimethyl-propyl)-4-hydroxy-phenyl]-pyridin-2ylmethyl}--2-morpholin-4-yl-thiazol-4-one], for which, in series [1], the “anticancer cell activity / killing of breast cancer cells” value is “kill significant percentages of the cells”. The “anticancer cell activity / killing of prostate cancer cells” value in series [2] is reported as “kill significant percentages of the cells”. In series [3], the “anticancer cell activity / killing of non-small-cell lung cancer cells” value is “kill significant percentages of the cells”. The “anticancer cell activity / killing of pancreatic cancer cells” value in series [4] is recorded as “kill significant percentages of the cells”.
